Columns and labels:
[1] = tested on: NMDA-induced glaucoma rat model; assay: Protective effect against NMDA-induced nerve damage, administration by instillation to the eye; format: in vivo, Sprague-Dawley (SD) rats; settings: Test 2, FIG. 1: 1% memantine solution in PBS instilled twice a day for five days; 5 μL of 4 mM NMDA intravitreously; vs base (PBS)
Description: (§1) In recent years the glutamate analogue NMDA (N-methyl-D-aspartate) has been widely reported to be one of causative agents of neurodegenerative diseases including Alzheimer's disease. In the ophthalmic field, NMDA is considered to be involved in optic nerve damage in glaucoma (Brain Research Bulletin, 81 (2010) 349-358). Accordingly, in this experiment rat models with glaucoma induced by NMDA were used to evaluate the neuroprotective effect of GGA.
To Sprague-Dawley (SD) rats (n=8), an eye drop containing 1% (w/v) GGA (all-trans form) or a control eye drop not containing GGA was pre-administered by instillation to the eye twice a day for five days. On the fifth day after the start of the instillation, 5 μL of 4 mM NMDA was intravitreously administered to induce nerve damage (Test 1). […]
(§2) Three days after the administration of NMDA, the eyeballs were harvested, fixed in half Karnovsky's fixative solution for 24 hours, embedded in paraffin, thin sectioned and stained with hematoxylin-eosin (HE) to prepare histopathological sections. The histological sections were observed under an optical microscope and the thickness (μm) of the inner plexiform layer (IPL) of the retina was measured. Based on the thickness of the inner plexiform layer (IPL) of the retina, the neuroprotective effect of the tested eye drops was evaluated.

[2] = tested on: NMDA-induced glaucoma rat model; assay: Protective effect against NMDA-induced nerve damage, instillation into the nose and administration to the oral cavity; format: in vivo, Sprague-Dawley (SD) rats; settings: vs no GGA
Description: as §1
To Sprague-Dawley (SD) rats (n=6), 20 μL of 100% (w/v) GGA (all-trans form) was intranasally administered once a day for five days and after each administration the rats were maintained under anesthesia for 30 minutes. On the third day after the start of the administration of GGA, 5 μL of 4 mM NMDA was intravitreously administered to induce nerve damage. […]
as §2, with “in” for “in half”

[3] = tested on: mouse with retinal injury induced by ischemia; settings: oral administration; cited from earlier work
[4] = tested on: multiple sclerosis mouse model; settings: oral administration; cited from earlier work
[5] = tested on: mouse with photoreceptor cell damage caused by light irradiation; settings: oral administration; cited from earlier work
[6] = tested on: retinal detachment-induced animal; settings: intraperitoneal administration; cited from earlier work
[7] = tested on: human corneal epithelial cells (HCET); assay: Cell permeability (Transwell), HCET; format: in vitro ADME; settings: HCET on Transwell; 0.1% GGA (all-trans:5Z-mono-cis 6:4); 30 minutes or 4 hours; compared with MDCK-I; FIG. 3
Description: (§3) The following test was performed using three types of cells, human corneal epithelial cells (HCET), human nasal septum squamous carcinoma cells (RPMI-2650), and canine renal tubular epithelial cells (MDCK-I), which are often used as an intestinal permeability assay model. The medium used for culture of each type of cells is shown below.
HCET: a liquid medium containing an equal ratio of Dulbecco's modified Eagle's basal medium/Ham's F12 (DMEM/F-12, Invitrogen) supplemented with 0.5% DMSO (Wako Pure Chemical Industries, Ltd.), 10 ng/mL epidermal growth factor (R&D), 5 μg/mL insulin (Invitrogen) and 5% (v/v) fetal calf serum (Daiichi Pure Chemicals)
GGA having a weight ratio of the all-trans form to the 5Z-mono-cis form of 6:4 (Wako Pure Chemical Industries, Ltd.) was used as a test substance. Amounts of 100 mg of GGA and 0.25 mg of α-tocopherol (Wako Pure Chemical Industries, Ltd.) as an antioxidant were weighed and dissolved in 789 mg of 100% ethanol. […]
(§4) Each type of cells was seeded onto a Transwell 24-well microplate (CORNING) at 5.0×10, cells per well and cultured under 5% CO2 at 37° C. […] After the culture period, the culture supernatant in the Transwells was recovered and the residual GGA in the supernatant was measured. […]
(§5) The concentration of GGA was measured as follows. […]

[8] = Decomposition of teprenone eye drop by direct sunlight in containers; format: physicochemical; settings: direct sunlight 24 hours; Container C (polyethylene terephthalate); vs aluminum foil covered control
Description: An eye drop containing teprenone was prepared. Specifically, the eye drop was prepared as follows. To surfactants (polysorbate 80 and POE castor oil) warmed to 65° C., teprenone was added and dissolved under stirring in hot water bath at 65° C. for 2 minutes. Water at 65° C. was added, a buffer solution was added, and the mixture was mixed under stirring to give a homogeneous solution. The pH and osmotic pressure were adjusted with hydrochloric acid or sodium hydroxide. The resulting solution was filtered through a membrane filter with a pore size of 0.2 μm (bottle top filter, Thermo Fisher Scientific) to give a clear sterile eye drop.
The eye drop was separately poured, using a glass volumetric pipette, into 10- to 15-mL plastic or glass containers each in an amount of 5 mL (5 g) and the containers were sealed. These eye drops were placed in the upright position on a test-tube stand and left to stand under direct sunlight for 24 hours (test samples). […]
The amount of teprenone contained in the test or control eye drops was measured by HPLC and the amount of decomposition (mg/100 mL) by light irradiation was calculated. The amount of decomposition by light irradiation was calculated as follows: […]

[9] = tested on: human nasal septum squamous carcinoma cells (RPMI-2650); assay: Cell permeability (Transwell), RPMI-2650; format: in vitro ADME; settings: RPMI-2650 on Transwell; 0.1% GGA (all-trans:5Z-mono-cis 6:4); 30 minutes or 4 hours; compared with MDCK-I; FIG. 3
Description: as §3
RPMI-2650: a minimum essential medium (MEM, Invitrogen) supplemented with 10% (v/v) fetal calf serum (Daiichi Pure Chemicals)
GGA having a weight ratio of the all-trans form to the 5Z-mono-cis form of 6:4 (Wako Pure Chemical Industries, Ltd.) was used as a test substance. Amounts of 100 mg of GGA and 0.25 mg of α-tocopherol (Wako Pure Chemical Industries, Ltd.) as an antioxidant were weighed and dissolved in 789 mg of 100% ethanol. The GGA dissolved in ethanol was diluted and dissolved in serum-free medium appropriate for each type of cells to a final concentration of 0.1 w/v %.
as §4, with “C. To each of the Transwells' lower chambers, 600 μL of the same medium as used for cell culture was added.” for “C.”
as §5

[10] = tested on: glaucoma rat model; settings: intraperitoneal administration; cited from earlier work

Compound	neuroprotective effect based on thickness of the inner plexiform layer (IPL) of the retina [1]	neuroprotective effect based on thickness of the inner plexiform layer (IPL) of the retina ([2]; FIG. 2: 20 μL of 100% (w/v) GGA (all-trans form) intranasally once a day for five days)	neuroprotective effect based on thickness of the inner plexiform layer (IPL) of the retina ([2]; FIG. 2: 100 μL of 100% (w/v) GGA (all-trans form) to the oral cavity once a day for five days)	number of surviving retinal neurons [3]	cell loss in the ganglion [4]	number of degenerating axons in the optic nerve [4]	visual function [4]	thioredoxin and heat shock protein 72 in the retinal pigment epithelium [5]	apoptosis of photoreceptor cells [6]	expression of heat shock protein 70 [6]	permeability of GGA through cells [7]	Amount of decomposition [8]	permeability of GGA through cells [9]	expression of heat shock protein 72 [10]	optic nerve damage [10]	retinal ganglion cell death [10]
CC12CC3CC(C)(C1)CC(N)(C3)C2 [memantine]	no neuroprotective effect															
geranylgeranylacetone [GGA]		apparent neuroprotective effect	apparent neuroprotective effect	significantly increased the number of surviving retinal neurons	prevented cell loss in the ganglion	reduced the number of degenerating axons in the optic nerve	improved the visual function	induced thioredoxin and heat shock protein 72 in the retinal pigment epithelium	reduced the apoptosis of photoreceptor cells significantly	induced the expression of heat shock protein 70	higher than that through MDCK-I	significantly inhibited the decomposition of GGA	higher than that through MDCK-I	induced the expression of heat shock protein 72	ameliorated optic nerve damage	reduced retinal ganglion cell death

Reference: patent US20140243419A1, “MUCOSALLY-APPLIED AGENT FOR PREVENTION, AMELIORATION OR TREATMENT OF RETINAL DISEASE” (ROHTO PHARMACEUTICAL CO., LTD., priority 2013, published 2014)
